Experimental data taken from patent US20250257064A1, “TRIFLUOROMETHYL-SUBSTITUTED SULFONAMIDE AS BCL-2-SELECTIVE INHIBITOR” (Chia Tai Tianqing Pharmaceutical Group Co., Ltd., priority 2018, published 2025).

Legend:
RS4;11 cells = experiment: Inhibitory effect on proliferation of RS4;11 cells (CCK-8); format: cell-based, human; conditions: Homo sapiens, RS4-11, 72 h
Description: Experimental Example 2: Inhibitory Effect of Compounds on Proliferation of RS4;11 Cells
RS4;11 cells (from Nanjing Cobioer) in logarithmic growth phase and good cell condition were added to a centrifuge tube and centrifuged at 1500 rpm for 3 min in a low speed centrifuge. The supernatant was discarded, and 5 mL of complete medium (RPMI basic medium+10 wt % fetal bovine serum (FBS)) was added using a pipette for cell resuspension. The cells were counted using a cell counter, diluted with complete medium to a cell density of 2×10^5 cells/mL, and added with an equivalent amount of RPMI basic medium to adjust the serum concentration to 5% and the cell density to 1×10^5 cells/mL for plate seeding. The cells were seeded on a 96-well plate at 100 μL/well using a pipettor, and incubated in an incubator at 37° C., 5% CO2 with saturated humidity. After 24 h of incubation, compounds were loaded using a nanoliter pipettor, 2 duplicate wells were set for each concentration, and cells without compound were used as negative controls. […] Inhibition rate (%)=(mean value of negative control group—mean value of experimental group)/(mean value of negative control group—mean value of blank group)×100%. A dose-response curve was fitted by four-parameter analysis, with the logarithm of compound concentration serving as abscissa and inhibition rate serving as ordinate, so that IC50 was calculated (FIG. 2).

BCL-XL/BAK = target: T1, BCL-XL/BAK (Homo sapiens, UniProt Q07817); experiment: Screening on inhibitory activity for BCL-XL/BAK binding (Cisbio HTRF kit)
T1 construct: purchased Cisbio
Description: 1.2 Screening on Inhibitory Activity for BCL-XL/BAK Binding
300 nM Tag1-BCL-XL protein stock solution and 10 μM Tag2-BAK protein stock solution were diluted to 2 nM and 80 nM respectively with dilution buffer in kit (model: BCL-XL/BAK (BH3) BINDING ASSAY KITS, from Cisbio). 5 μL of Tag1-BCL-XL protein diluent was added to each well, then different compounds dissolved with DMSO were added to the wells with a nanoliter pipettor, allowing the final compound concentrations to be 2000 nM to 0.488 nM (4-fold gradient for 7 concentrations in total). Blank control wells (without enzyme) and negative control wells (with enzyme, plus vehicle DMSO) were set, and 2 replicate wells were set. Finally, 5 μL of Tag2-BAK protein diluent was added to each well, and the mixture was mixed well by centrifugation and incubated at 25° C. for 15 min. 100× anti-Tag1-Eu^3+ and 100× anti-Tag2-XL665 were both diluted to 1× working concentration with the detection buffer in the kit. Anti-Tag1-Eu^3+ and anti-Tag2-XL665 were mixed well in a 1:1 ratio, and the mixture was added to wells at 5 µL/well, and incubated at 25° C. for 2 h or more. The plate was read using a PE Envision multi-functional microplate reader (excitation: […], emission: 665 nm) and IC50 (shown in table 1) was calculated by four-parameter fitting.

BCL-2/BAK = target: T2, BCL-2/BAK (Homo sapiens, UniProt P10415); experiment: Screening on inhibitory activity for BCL-2/BAK binding (Cisbio HTRF kit)
T2 construct: purchased Cisbio
Description: 1.1 Screening on Inhibitory Activity for BCL-2/BAK Binding
500 nM Tag1-BCL-2 protein stock solution and 20 μM Tag2-BAK protein stock solution were diluted to 5 nM and 120 nM respectively with dilution buffer in kit (model: BCL-2/BAK (BH3) BINDING ASSAY KITS, from Cisbio). 5 μL of Tag1-BCL-2 protein diluent was added to each well, then different compounds dissolved with DMSO were added to the wells with a nanoliter pipettor, allowing the final compound concentrations to be 200 nM to 0.0488 nM (4-fold gradient for 7 concentrations in total). Blank control wells (without enzyme) and negative control wells (with enzyme, plus vehicle DMSO) were set, and 2 replicate wells were set. Finally, 5 μL of Tag2-BAK protein diluent was added to each well, and the mixture was mixed well by centrifugation and incubated at 25° C. for 15 min. 100× anti-Tag1-Eu^3+ and 100× anti-Tag2-XL665 were both diluted to 1× working concentration with the detection buffer in the kit. Anti-Tag1-Eu^3+ and anti-Tag2-XL665 were mixed well in a 1:1 ratio, and the mixture was added to wells at 5 μL/well, and incubated at 25° C. for 2 h or more. The plate was read using a PE Envision multi-functional microplate reader (excitation: […], emission: 665 nm) and IC50 (shown in table 1) was calculated by four-parameter fitting.

T1 sequence (Q07817 whole entry, species assumed): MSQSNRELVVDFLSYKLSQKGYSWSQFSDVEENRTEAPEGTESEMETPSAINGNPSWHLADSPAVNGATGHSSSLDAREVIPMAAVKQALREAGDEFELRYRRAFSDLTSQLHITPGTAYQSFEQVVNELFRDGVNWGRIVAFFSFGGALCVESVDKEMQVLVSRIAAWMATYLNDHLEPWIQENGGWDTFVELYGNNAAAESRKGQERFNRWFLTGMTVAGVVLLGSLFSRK
T2 sequence (P10415 whole entry, species assumed): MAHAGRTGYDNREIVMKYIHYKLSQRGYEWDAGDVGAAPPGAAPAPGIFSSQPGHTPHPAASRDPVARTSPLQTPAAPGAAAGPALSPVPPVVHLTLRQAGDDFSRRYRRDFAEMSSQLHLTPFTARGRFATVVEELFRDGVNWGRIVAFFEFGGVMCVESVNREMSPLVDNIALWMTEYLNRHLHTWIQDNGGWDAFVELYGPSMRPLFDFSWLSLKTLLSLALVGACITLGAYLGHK

Row | Structure (SMILES) | IC50 (RS4;11 cells) [nM] | IC50 (BCL-XL/BAK) [nM] | IC50 (BCL-2/BAK) [nM]
1 | CCOC(=O)N1CCOC(CNc2ccc(S(=O)(=O)NC(=O)c3ccc(N4CCN(CC5=C(c6ccc(C(F)(F)F)cc6Cl)CC(C)(C)CC5)CC4)cc3Oc3cnc4[nH]ccc4c3)cc2[N+](=O)[O-])C1 (stereo not drawn) [Compound 74-1, 4-(4-{[2-(2-chloro-4-trifluoromethylphenyl)-4,4-dimethylcyclohex-1-enyl]methyl}-piperazin-1-yl)-N-({3-nitro-4-[((4-(ethoxyformyl)morpholin-2-yl)methyl)amino]phenyl}sulfonyl)-2-(1H-pyrrolo[2,3-b]pyridin-5-yloxy)-benzamide] | 6.9 | 252 | 1.66
2 | CC1(C)CCC(CN2CCN(c3ccc(C(=O)NS(=O)(=O)c4ccc(NCC5CN(C(=O)C(F)(F)F)CCO5)c([N+](=O)[O-])c4)c(Oc4cnc5[nH]ccc5c4)c3)CC2)=C(c2ccc(C(F)(F)F)cc2Cl)C1 (stereo not drawn) [Compound 52-1, 4-(4-{[2-(2-chloro-4-trifluoromethylphenyl)-4,4-dimethylcyclohex-1-enyl]methyl}-piperazin-1-yl)-N-({3-nitro-4-[((4-(2,2,2-trifluoroacetyl)morpholin-2-yl)methyl)amino]phenyl}sulfonyl)-2-(1H-pyrrolo[2,3-b]pyridin-5-yloxy)-benzamide] | 0.9 | 175 | 3.9
3 | CC1(C)CCC(CN2CCN(c3ccc(C(=O)NS(=O)(=O)c4ccc(NCC5CN(C(=O)C(C)(C)C)CCO5)c([N+](=O)[O-])c4)c(Oc4cnc5[nH]ccc5c4)c3)CC2)=C(c2ccc(C(F)(F)F)cc2Cl)C1 (stereo not drawn) [Compound 50-1, 4-(4-{[2-(2-chloro-4-trifluoromethylphenyl)-4,4-dimethylcyclohex-1-enyl]methyl}-piperazin-1-yl)-N-({3-nitro-4-[((4-pivaloylmorpholin-2-yl)methyl)amino]phenyl}sulfonyl)-2-(1H-pyrrolo[2,3-b]pyridin-5-yloxy)-benzamide] | 4.3 | 211 | 2.59
4 | CC(C)C(=O)N1CCC(CNc2ccc(S(=O)(=O)NC(=O)c3ccc(N4CCN(CC5=C(c6ccc(C(F)(F)F)cc6Cl)CC(C)(C)CC5)CC4)cc3Oc3cnc4[nH]ccc4c3)cc2[N+](=O)[O-])CC1 [Compound 23-1] | 10 | 302 | 5.1
5 | COCC(=O)N1CCCC(CNc2ccc(S(=O)(=O)NC(=O)c3ccc(N4CCN(CC5=C(c6ccc(C(F)(F)F)cc6Cl)CC(C)(C)CC5)CC4)cc3Oc3cnc4[nH]ccc4c3)cc2[N+](=O)[O-])C1 (stereo not drawn) [Compound 58-1, 4-(4-{[2-(2-chloro-4-trifluoromethylphenyl)-4,4-dimethylcyclohex-1-enyl]methyl}-piperazin-1-yl)-N-({3-nitro-4-[((1-(2-methoxyacetyl)piperidin-3-yl)methyl)amino]phenyl}sulfonyl)-2-(1H-pyrrolo[2,3-b]pyridin-5-yloxy)-benzamide] | 5.3 | 145 | 2.35
6 | CC(C)C(=O)N1CCO[C@H](CNc2ccc(S(=O)(=O)NC(=O)c3ccc(N4CCN(CC5=C(c6ccc(C(F)(F)F)cc6Cl)CC(C)(C)CC5)CC4)cc3Oc3cnc4[nH]ccc4c3)cc2[N+](=O)[O-])C1 [Compound 66-1, (R)-4-(4-{[2-(2-chloro-4-trifluoromethylphenyl)-4,4-dimethylcyclohex-1-enyl]methyl}-piperazin-1-yl)-N-({3-nitro-4-[((4-isobutyrylmorpholin-2-yl)methyl)amino]phenyl}sulfonyl)-2-(1H-pyrrolo[2,3-b]pyridin-5-yloxy)-benzamide] | 3.3 | 273 | 2.6
7 | CC1(C)CCC(CN2CCN(c3ccc(C(=O)NS(=O)(=O)c4ccc(NCC5CN(C=O)CCO5)c([N+](=O)[O-])c4)c(Oc4cnc5[nH]ccc5c4)c3)CC2)=C(c2ccc(C(F)(F)F)cc2Cl)C1 (stereo not drawn) [Compound 48-1, 4-(4-{[2-(2-chloro-4-trifluoromethylphenyl)-4,4-dimethylcyclohex-1-enyl]methyl}-piperazin-1-yl)-N-({3-nitro-4-[((N-formylmorpholin-2-yl)methyl)amino]phenyl}sulfonyl)-2-(1H-pyrrolo[2,3-b]pyridin-5-yloxy)-benzamide] | 1.4 | 118 | 1.4

Continued by falling IC50 (RS4;11 cells), values first:

Row | IC50 (RS4;11 cells) [nM] | IC50 (BCL-XL/BAK) [nM] | IC50 (BCL-2/BAK) [nM] | Structure (SMILES)
8 | 8.1 | 387 | 3.6 | CC1(C)CCC(CN2CCN(c3ccc(C(=O)NS(=O)(=O)c4ccc(NCC5CCCOC5)c([N+](=O)[O-])c4)c(Oc4cnc5[nH]ccc5c4)c3)CC2)=C(c2ccc(C(F)(F)F)cc2Cl)C1 (stereo not drawn) [Compound 13-1, 4-(4-{[2-(2-chloro-4-trifluoromethylphenyl)-4,4-dimethylcyclohex-1-enyl]methyl}-piperazin-1-yl)-N-({3-nitro-4-[(tetrahydro-2H-pyran-3-ylmethyl)amino]phenyl}sulfonyl)-2-(1H-pyrrolo[2,3-b]pyridin-5-yloxy)-benzamide]
9 | 6.8 | 220 | 2.81 | CC1(C)CCC(CN2CCN(c3ccc(C(=O)NS(=O)(=O)c4ccc(NC[C@H]5CCCOC5)c([N+](=O)[O-])c4)c(Oc4cnc5[nH]ccc5c4)c3)CC2)=C(c2ccc(C(F)(F)F)cc2Cl)C1 [Compound 42-1, (R)-4-(4-{[2-(2-chloro-4-trifluoromethylphenyl)-4,4-dimethylcyclohex-1-enyl]methyl}-piperazin-1-yl)-N-({3-nitro-4-[((tetrahydropyran-3-yl)methyl)amino]phenyl}sulfonyl)-2-(1H-pyrrolo[2,3-b]pyridin-5-yloxy)-benzamide]
10 | 6.6 | 187 | 2.81 | CC1(C)CCC(CN2CCN(c3ccc(C(=O)NS(=O)(=O)c4ccc(NC[C@H]5CCCO5)c([N+](=O)[O-])c4)c(Oc4cnc5[nH]ccc5c4)c3)CC2)=C(c2ccc(C(F)(F)F)cc2Cl)C1 [Compound 38-1, (R)-4-(4-{[2-(2-chloro-4-trifluoromethylphenyl)-4,4-dimethylcyclohex-1-enyl]methyl}-piperazin-1-yl)-N-({3-nitro-4-[((tetrahydrofuran-2-yl)methyl)amino]phenyl}sulfonyl)-2-(1H-pyrrolo[2,3-b]pyridin-5-yloxy)-benzamide]
11 | 4.1 | 145 | 2.35 | CC(C)C(=O)N1CCO[C@@H](CNc2ccc(S(=O)(=O)NC(=O)c3ccc(N4CCN(CC5=C(c6ccc(C(F)(F)F)cc6Cl)CC(C)(C)CC5)CC4)cc3Oc3cnc4[nH]ccc4c3)cc2[N+](=O)[O-])C1 [Compound 62-1, (S)-4-(4-{[2-(2-chloro-4-trifluoromethylphenyl)-4,4-dimethylcyclohex-1-enyl]methyl}-piperazin-1-yl)-N-({3-nitro-4-[((4-isobutyrylmorpholin-2-yl)methyl)amino]phenyl}sulfonyl)-2-(1H-pyrrolo[2,3-b]pyridin-5-yloxy)-benzamide]
12 | 1.4 | 217 | 2.3 | CC1(C)CCC(CN2CCN(c3ccc(C(=O)NS(=O)(=O)c4ccc(NC[C@H]5CN(S(C)(=O)=O)CCO5)c([N+](=O)[O-])c4)c(Oc4cnc5[nH]ccc5c4)c3)CC2)=C(c2ccc(C(F)(F)F)cc2Cl)C1 [Compound 63-1, (S)-4-(4-{[2-(2-chloro-4-trifluoromethylphenyl)-4,4-dimethylcyclohex-1-enyl]methyl}-piperazin-1-yl)-N-({3-nitro-4-[(((4-(methylsulfonyl)morpholin)-2-yl)methyl)amino]phenyl}sulfonyl)-2-(1H-pyrrolo[2,3-b]pyridin-5-yloxy)-benzamide]
